According to patent publication US20140335179A1, “[…] OF ATORVASTATIN HEMICALCIUM” (DSM SINOCHEM PHARMACEUTICALS NETHERLANDS B.V., priority 2011, published 2014):
Several values for one entry are separate records, joined by “and”; a condition that tells them apart may be missing. Identical values can stand only once.

How the values were obtained:
[1] = Determination of intrinsic dissolution rate (IDR), stationary disc method, USP 24 apparatus; format: physicochemical; conditions: 37°C, 100 rpm, hemi calcium salt; for IDR, mean value: 50 mM sodium dihydrogen phosphate buffer pH 6.8 with 2% w/v sodium lauryl sulphate
Procedure: IDR of crystalline and amorphous atorvastatin hemi-calcium samples was performed by the stationary disc method using USP 24 apparatus. The discs were prepared by compacting 100 mg of powder at 800 psi pressure in a hydraulic press (Hydraulic Unit Model 3912, Carver Inc., WI) with a dwell time of 15 sec, in 8 mm punch die set (surface area 0.5 cm^2). The dissolution studies were performed in 500 ml of 50 mM sodium dihydrogen phosphate buffer (pH 6.8) containing 2% w/v sodium lauryl sulphate maintained at a temperature of 37±0.5° C. and a rotational speed of 100 rpm. Samples were withdrawn at regular intervals, replaced with dissolution medium, and analyzed by UV spectrophotometry at 242 nm up to 60 minutes.

[2] = Specific surface area determination by nitrogen gas sorption (BET); format: physicochemical; conditions: individual samples, hemi calcium salt
Procedure: Specific surface area of the samples was determined using nitrogen gas sorption (Smartsorb, Smart Instruments, Mumbai, India). Prior to measurements, weighed samples were regenerated by degassing to remove moisture and contamination. The regenerated sample was dipped in liquid nitrogen and the quantity of the adsorbed gas was measured using thermal conductivity detector and then integrated using electronic circuit in terms of counts. The instrument was calibrated by injecting known quantity of nitrogen. The measured parameters were then used to calculate surface area of the sample by employing the adsorption theories of Brunauer, Emmett and Teller (BET).

[3] = mean value of 35 separate batches
Procedure: • Instrument: The PSD was determined using a Malvern Mastersizer 2000 equipped with hydro 2000S(A), flow cell, Fourier lenses and a multi-element detector • Data handling system: Malvern Mastersizer 2000 version 5.21 • Technique used: Wet method • Optical parameters: Optical presentation comprising of: • Particle RI: 1.5 • Absorption: 0 • Dispersant RI: 1.375 or 1.4 • Analysis Model: General purpose • Sample measurement snaps: 5000 • Background meas. snaps: 5000 • No. of measurement cycles: 5 • Delay between measurements: 5 sec • Preparation of sample solution: About 25 mg of the sample was weighed in a beaker and about 20 mL of dispersion medium was added with constant stirring and sonification for 30 sec resulting in a uniform dispersion. After sonification the measurement was performed after the obscure value was stabilized between 10-20% • Procedure: • a. The flow cell was assembled to the instrument • b. Dispersion medium poured to Hydro 2000S(A) unit • c. Stirrer speed was set at 2200 rpm • d. Instrument was aligned after feeding the required parameters • e. Background was measured • f. Sample was analyzed by recording five measurements for each sample preparation and the mean RSD values were collected at D(v, 0.1), D(v, 0.5) and D(v, 0.9)

| Compound | IDR, mean value [1] | IDR values of three samples ([1]; three different micronized samples of the Example, pH 6.8 buffer with 2% SLS) | surface area [2] | PSD d10 [3] | PSD d50 [3] | PSD d90 [3] |
| --- | --- | --- | --- | --- | --- | --- |
| CC(C)c1c(C(=O)Nc2ccccc2)c(-c2ccccc2)c(-c2ccc(F)cc2)n1CC[C@@H](O)C[C@@H](O)CC(=O)O.CC(C)c1c(C(=O)Nc2ccccc2)c(-c2ccccc2)c(-c2ccc(F)cc2)n1CC[C@@H](O)C[C@@H](O)CC(=O)O.CC(C)c1c(C(=O)Nc2ccccc2)c(-c2ccccc2)c(-c2ccc(F)cc2)n1CC[C@@H](O)C[C@@H](O)CC(=O)[O-].CC(C)c1c(C(=O)Nc2ccccc2)c(-c2ccccc2)c(-c2ccc(F)cc2)n1CC[C@@H](O)C[C@@H](O)CC(=O)[O-].[Ca+2] (relative stereo) [amorphous atorvastatin, [R-(R*,R*)]-2-(4-fluorophenyl)-β,δ-dihydroxy-5-(1-methylethyl)-3-phenyl-4-[(phenylamino)carbonyl]-1H-pyrrole-1-heptanoic acid hemi calcium salt, reference compound] | 0.281 mg/cm^2/min | – | – | – | – | – |
| CC(C)c1c(C(=O)Nc2ccccc2)c(-c2ccccc2)c(-c2ccc(F)cc2)n1CC[C@@H](O)C[C@@H](O)CC(=O)O.CC(C)c1c(C(=O)Nc2ccccc2)c(-c2ccccc2)c(-c2ccc(F)cc2)n1CC[C@@H](O)C[C@@H](O)CC(=O)O.CC(C)c1c(C(=O)Nc2ccccc2)c(-c2ccccc2)c(-c2ccc(F)cc2)n1CC[C@@H](O)C[C@@H](O)CC(=O)[O-].CC(C)c1c(C(=O)Nc2ccccc2)c(-c2ccccc2)c(-c2ccc(F)cc2)n1CC[C@@H](O)C[C@@H](O)CC(=O)[O-].[Ca+2] (relative stereo) [crystalline atorvastatin hemi-calcium having a well-defined ] [[R-(R*,R*)]-2-(4-fluorophenyl)-β,δ-dihydroxy-5-(1-methylethyl)-3-phenyl-4-[(phenylamino)carbonyl]-1H-pyrrole-1-heptanoic acid hemi calcium salt] | 0.132 mg/cm^2/min | 0.146±0.013 mg/cm^2/min and 0.130±0.017 mg/cm^2/min and 0.109±0.006 mg/cm^2/min | 8.550±0.051 m^2/g and 8.384±0.303 m^2/g and 8.684±0.216 m^2/g | 3 μm | 6 μm | 12 μm |
